# Measured values reported in publication PMC10426190 (Breast Cancer Research : BCR, 2023).
# Where two headings read alike, the source gives them in different places.
# Experiments:
# ERα = target: T1, ERα (Homo sapiens, UniProt P03372); assay: ERα degradation assay, In-Cell Western, MCF-7 WT; format: cell-based; set-up: MCF-7 wild type and Y537S mutant cells were seeded at a density of 5000 cells per well; host or cells: MCF-7; details: 24 h
# T1 sequence (P03372 1-595): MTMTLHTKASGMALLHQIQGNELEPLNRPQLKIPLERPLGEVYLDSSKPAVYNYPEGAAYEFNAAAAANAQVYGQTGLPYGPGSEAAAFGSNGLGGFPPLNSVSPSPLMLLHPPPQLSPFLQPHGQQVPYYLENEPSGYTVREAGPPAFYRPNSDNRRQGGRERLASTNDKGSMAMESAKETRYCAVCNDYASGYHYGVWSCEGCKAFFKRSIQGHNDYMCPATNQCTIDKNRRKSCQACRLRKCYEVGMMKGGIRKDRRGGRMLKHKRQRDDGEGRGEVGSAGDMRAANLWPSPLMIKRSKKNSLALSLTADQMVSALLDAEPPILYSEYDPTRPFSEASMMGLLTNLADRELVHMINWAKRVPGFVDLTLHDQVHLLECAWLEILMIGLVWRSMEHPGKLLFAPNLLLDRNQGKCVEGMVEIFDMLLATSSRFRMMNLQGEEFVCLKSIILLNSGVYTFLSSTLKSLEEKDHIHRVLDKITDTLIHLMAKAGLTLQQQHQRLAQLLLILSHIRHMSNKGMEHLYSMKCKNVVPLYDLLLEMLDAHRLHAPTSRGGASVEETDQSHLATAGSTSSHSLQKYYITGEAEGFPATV
# Method: MCF-7 wild type and Y537S mutant cells were seeded at a density of 5000 cells per well into flat clear bottom tissue cultured-treated 384-well plates (Greiner) in culture media and after overnight incubation cells were treated with compounds for 24 h. Then plates were fixed with 4% formaldehyde, permeabilized with ice-cold methanol, and blocked with Odyssey Blocking Buffer (LI-COR). The fixed cells were incubated with rabbit anti- ERα antibody (CST#8644S) and mouse anti-GAPDH antibody (Abcam #ab8245), washed and stained with IRDye 800 Goat anti-Rabbit IgG (Licor#926-32211) and IRDye 680 Goat anti-Mouse IgG (Licor#926-68070). ERα levels were quantitated using Sapphire RGBNIR (Azure), the acumen eX3 imaging system. […] IC50 and Emax were analyzed with IDBS XLfit.
# MCF7 cells were seeded in a 384-well plate and linear-dilution compounds were administrated in duplicate for each treatment. After incubation for 24 h, Cells in the assay pate were treated as described in methods. ERα levels were quantified by immunofluorescence assay. […] Cells were dispended into 96-well plates and incubated for 24 h with compounds (100 nM) treatment. […] Cells were seeded in 384-well plates and treated with linear-dilution compounds for 7 days of incubation. Cell viability was assessed using CellTiter-Glo. Cell growth inhibition is presented as a percentage of CellTiterGlo activity relative to the vehicle control. […] Then cells in each well were collected and the targeting proteins in lysate supernatant were detected by WB
# Cells were seeded at a density of 5,000 cells per well into 384-well plates and treated with linear-titration compounds in duplicate for 24 hours. ERα levels were quantified by immunofluorescence assay as described in the method. The detection signals were captured by Odyssey.
# [1] = system: MCF-7 subcutaneous tumors; assay: MCF-7 subcutaneous xenograft mouse model; format: in vivo; details: MCF7 sc, 250 mg/kg subcutaneous once a week
# Method: Female Balb/c nude mice were used for MCF-7 and T47D tumor subcutaneous xenograft studies. At least one day before tumor cell implantation, estrogen pellets (0.18 mg, 17β-Estradiol, 60-day release, Innovative Research of America, Sarasota, FL, USA) were implanted subcutaneously. Each mouse was subcutaneously injected with 1 × 10^7 MCF-7 (ECACC) or T47D cells in the right flank, and tumor growth was monitored. The long diameter (a) and the short diameter (b) of the tumor were measured using a caliper, and the tumor volume was calculated using the following formula: V = 0.5 × a × b^2. […] Tumor volumes were evaluated twice per week. Treatment tolerability was assessed by body weight measurements and frequent observation for clinical signs of treatment-related adverse effects.
# (§1) Statistical and graphical presentations were performed using IDBS XLfit and GraphPad Prism 9. For cell proliferation assays, the IC50 was calculated by fitting a dose–response curve using a nonlinear regression model with a log(inhibitor) vs response curve fit. […] P-values < 0.05 were considered statistically significant.
# MCF7 ESR1 D538G cells = assay: Viability assay (CellTiter-Glo, 7 days), MCF7 D538G; format: cell-based, human; details: MCF-8 D538G
# Method: (§2) Trypsinized cells were dispensed into 384-well plates in culture media and after overnight incubation cells were treated with compounds for 7 days. Cell viability was assessed using CellTiter-Glo (Promega) according to the manufacturer’s protocol and relative luminescence units (RLU) were measured using an Envision Multilabel Reader (Perkin Elmer). […] IC50 and Imax were analyzed with IDBS XLfit.
# as §1
# advanced breast cancer = details: cited from earlier work; for PFS: second-line
# [2] = system: ER + breast cancer cell lines; assay: Proliferation assay across ER-positive cell panel; format: cell-based, human; details: 7 days
# Method: as §2
# MCF7 cells were seeded in a 384-well plate and linear-dilution compounds were administrated in duplicate for each treatment. After incubation for 24 h, Cells in the assay pate were treated as described in methods. ERα levels were quantified by immunofluorescence assay. […] Data are given as mean ± SEM. b The maximal ERα degradation across an ER-positive cell panel was evaluated in an In-cell Western assay. Cells were dispended into 96-well plates and incubated for 24 h with compounds (100 nM) treatment. […] Cells were seeded in 384-well plates and treated with linear-dilution compounds for 7 days of incubation. Cell viability was assessed using CellTiter-Glo. Cell growth inhibition is presented as a percentage of CellTiterGlo activity relative to the vehicle control. […] WT (e) and ER. Y537S cells (f). […] Then cells in each well were collected and the targeting proteins in lysate supernatant were detected by WB
Compound,ERα degradation assay Dmax [% Ful.] (ERα),ERα degradation assay Dmax [% Veh.] (ERα),TGI [1],"IC50 (MCF7 ESR1 D538G cells; Homo sapiens, MCF7, 168 h)",Viability assay Emax [% Ful.] (MCF7 ESR1 D538G cells),Viability assay Emax [% Veh.] (MCF7 ESR1 D538G cells),OS (advanced breast cancer; 250 mg dose regimen ref 16),OS (advanced breast cancer; Fulvestrant HD 500 mg ref 16),PFS (advanced breast cancer; higher value of 6.5 vs. 5.5 (Fulvestrant HD 500 mg) ref 16),PFS (advanced breast cancer; lower value of 6.5 vs. 5.5 (250 mg dose regimen) ref 16),anti-proliferation potency in ER + cell panel [2]
C[C@]12CC[C@@H]3c4ccc(O)cc4C[C@@H](CCCCCCCCC[S+]([O-])CCCC(F)(F)C(F)(F)F)[C@H]3[C@@H]1CC[C@@H]2O (some centres unmarked) [Fulvestrant],97.69 % Ful.,56.04 % Veh.,28.84%,11.1 nM,106.1 % Ful.,68.57 % Veh.,22.3 months,26.4 months,6.5 months,5.5 months,–
CC/C(=C(\c1ccc(O)cc1)c1ccc(OCCN(C)C)cc1)c1ccccc1 [4-OH-tamoxifen],–,–,–,–,–,–,–,–,–,–,less potent than all tested SERDs
